In PMC9898036, “VIP152 is a selective CDK9 inhibitor with pre-clinical in vitro and in vivo efficacy in chronic lymphocytic leukemia” (Leukemia, 2022):

Columns and labels:
INSRR = INSRR (Homo sapiens, UniProt P14616); assay: KINOMEscan: INSRR; assay type: binding; details: 1000 nM, read-out: Percent Control
MARK4 = MARK4 (Homo sapiens, UniProt Q96L34); assay: KINOMEscan: MARK4; assay type: binding; details: 1000 nM, read-out: Percent Control
ERK5 = ERK5 (Homo sapiens, UniProt Q13164); assay: KINOMEscan: ERK5; assay type: binding; details: 1000 nM, read-out: Percent Control
CDKL2 = CDKL2 (Homo sapiens, UniProt Q92772); assay: KINOMEscan: CDKL2; assay type: binding; details: 1000 nM, read-out: Percent Control
Adrenergic α2A = target: T1, Adrenergic α2A (Homo sapiens, UniProt P08913); assay: Eurofins Diversity Panel; assay type: binding; details: hum
T1 construct: purchased Eurofins
T1 sequence (P08913 1-465): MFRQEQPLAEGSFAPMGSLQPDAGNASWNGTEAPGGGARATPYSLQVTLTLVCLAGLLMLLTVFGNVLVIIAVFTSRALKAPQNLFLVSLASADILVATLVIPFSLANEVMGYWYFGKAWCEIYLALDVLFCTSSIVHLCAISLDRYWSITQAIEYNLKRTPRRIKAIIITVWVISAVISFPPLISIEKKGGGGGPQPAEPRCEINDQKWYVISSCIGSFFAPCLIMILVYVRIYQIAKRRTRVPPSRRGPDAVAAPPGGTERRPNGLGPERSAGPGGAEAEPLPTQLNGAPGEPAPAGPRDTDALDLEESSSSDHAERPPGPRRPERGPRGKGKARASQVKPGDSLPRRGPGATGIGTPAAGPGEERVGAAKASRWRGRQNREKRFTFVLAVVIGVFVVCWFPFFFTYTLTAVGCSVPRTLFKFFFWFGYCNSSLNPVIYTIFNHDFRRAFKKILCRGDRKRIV

MRCKB = MRCKB (Homo sapiens, UniProt Q9Y5S2); assay: KINOMEscan: MRCKB; assay type: binding; details: 1000 nM, read-out: Percent Control
OSU-CLL = assay: Annexin V/propidium iodide flow cytometry; details: compared with HG-3 and MEC-1; 24, 48, 72 h
Experimental: HG-3, MEC-1, and OSU-CLL were cultured for 24, 48, and 72 h with VIP152 or DMSO.
MTS Proliferation Studies, Annexin V/PI Flow Cytometry
For apoptosis assays of primary CLL, cells were acquired under an institutional reviewer board-approved protocol with informed consent. Leukemia cells were isolated from whole blood utilizing RosetteSep Human B Cell Enrichment Cocktail ([sequence]). Stromal
coculture was done by plating HS-5 stromal cells (50% confluent) in a 6-well plate 24 hours before the addition of CLL cells. CLL cells were added to the plate with VIP152 and allowed to incubate for four hours upon which the cells were centrifuged and replated using 50% HS-5 conditioned media. Apoptosis was measured utilizing FITC-conjugated Annexin-V and Propidium Iodide (Leinco) on a Beckmann-Coulter Cytoflex. Primary samples were excluded from analysis if the viability of the DMSO group was <40% as defined by Annexin-V/Propdium Iodide-/- cells. Single-color controls were utilized for compensation using pooled primary cell sample heated for

[1] = target: RPS6KA4(Kin.Dom.1-N-terminal) (Homo sapiens, UniProt O75676); assay: KINOMEscan: RPS6KA4(Kin.Dom.1-N-terminal); assay type: binding; details: 100 nM, read-out: Percent Control
LATS1 = LATS1 (Homo sapiens, UniProt O95835); assay: KINOMEscan: LATS1; assay type: binding; details: 1000 nM, read-out: Percent Control
AXL = AXL (Homo sapiens, UniProt P30530); assay: KINOMEscan: AXL; assay type: binding; details: 1000 nM, read-out: Percent Control
FAK = FAK (Homo sapiens, UniProt Q05397); assay: KINOMEscan: FAK; assay type: binding; details: 1000 nM, read-out: Percent Control
ULK2 = ULK2 (Homo sapiens, UniProt Q8IYT8); assay: KINOMEscan: ULK2; assay type: binding; details: 100 nM, read-out: Percent Control
SRPK3 = SRPK3 (Homo sapiens, UniProt Q9UPE1); assay: KINOMEscan: SRPK3; assay type: binding; details: 100 nM, read-out: Percent Control
MST1R = MST1R (Homo sapiens, UniProt Q04912); assay: KINOMEscan: MST1R; assay type: binding; details: 1000 nM, read-out: Percent Control
TBK1 = TBK1 (Homo sapiens, UniProt Q9UHD2); assay: KINOMEscan: TBK1; assay type: binding; details: 100 nM, read-out: Percent Control
MELK = MELK (Homo sapiens, UniProt Q14680); assay: KINOMEscan: MELK; assay type: binding; details: 1000 nM, read-out: Percent Control
EPHA6 = EPHA6 (Homo sapiens, UniProt Q9UF33); assay: KINOMEscan: EPHA6; assay type: binding; details: 1000 nM, read-out: Percent Control
MAP4K4 = MAP4K4 (Homo sapiens, UniProt O95819); assay: KINOMEscan: MAP4K4; assay type: binding; details: 1000 nM, read-out: Percent Control
[2] = target: JAK3(JH1domain-catalytic) (Homo sapiens, UniProt P52333); assay: KINOMEscan: JAK3(JH1domain-catalytic); assay type: binding; details: 1000 nM, read-out: Percent Control
TSSK3 = TSSK3 (Homo sapiens, UniProt Q96PN8); assay: KINOMEscan: TSSK3; assay type: binding; details: 100 nM, read-out: Percent Control
MAP4K2 = MAP4K2 (Homo sapiens, UniProt Q12851); assay: KINOMEscan: MAP4K2; assay type: binding; details: 1000 nM, read-out: Percent Control
CAMK2G = CAMK2G (Homo sapiens, UniProt Q13555); assay: KINOMEscan: CAMK2G; assay type: binding; details: 1000 nM, read-out: Percent Control
CTK = CTK (Homo sapiens, UniProt P42679); assay: KINOMEscan: CTK; assay type: binding; details: 1000 nM, read-out: Percent Control
IKK-beta = IKK-beta (Homo sapiens, UniProt O14920); assay: KINOMEscan: IKK-beta; assay type: binding; details: 1000 nM, read-out: Percent Control
[3] = target: RSK3(Kin.Dom.2-C-terminal) (Homo sapiens, UniProt Q15349); assay: KINOMEscan: RSK3(Kin.Dom.2-C-terminal); assay type: binding; details: 100 nM, read-out: Percent Control
TSSK1B = TSSK1B (Homo sapiens, UniProt Q9BXA7); assay: KINOMEscan: TSSK1B; assay type: binding; details: 100 nM, read-out: Percent Control
Dopamine D4.2 = Dopamine D4.2 (Homo sapiens, UniProt P21917, DEL265-296); assay: Eurofins Diversity Panel; assay type: binding; details: hum, Conc. 10 μM
SNARK = SNARK (Homo sapiens, UniProt Q9H093); assay: KINOMEscan: SNARK; assay type: binding; details: 100 nM, read-out: Percent Control
EPHB2 = EPHB2 (Homo sapiens, UniProt P29323); assay: KINOMEscan: EPHB2; assay type: binding; details: 1000 nM, read-out: Percent Control
MEK4 = MEK4 (Homo sapiens, UniProt P45985); assay: KINOMEscan: MEK4; assay type: binding; details: 1000 nM, read-out: Percent Control
TAOK2 = TAOK2 (Homo sapiens, UniProt Q9UL54); assay: KINOMEscan: TAOK2; assay type: binding; details: 100 nM, read-out: Percent Control
DLK = DLK (Homo sapiens, UniProt Q12852); assay: KINOMEscan: DLK; assay type: binding; details: 1000 nM, read-out: Percent Control
[4] = target: JAK2(JH1domain-catalytic) (Homo sapiens, UniProt O60674); assay: KINOMEscan: JAK2(JH1domain-catalytic); assay type: binding; details: 1000 nM, read-out: Percent Control
Adenosine A3 = Adenosine A3 (Homo sapiens, UniProt P0DMS8); assay: Eurofins Diversity Panel; assay type: binding; details: hum, Conc. 10 μM
TLK2 = TLK2 (Homo sapiens, UniProt Q86UE8); assay: KINOMEscan: TLK2; assay type: binding; details: 100 nM, read-out: Percent Control

Chain of MAP4K4 (O95819 whole entry): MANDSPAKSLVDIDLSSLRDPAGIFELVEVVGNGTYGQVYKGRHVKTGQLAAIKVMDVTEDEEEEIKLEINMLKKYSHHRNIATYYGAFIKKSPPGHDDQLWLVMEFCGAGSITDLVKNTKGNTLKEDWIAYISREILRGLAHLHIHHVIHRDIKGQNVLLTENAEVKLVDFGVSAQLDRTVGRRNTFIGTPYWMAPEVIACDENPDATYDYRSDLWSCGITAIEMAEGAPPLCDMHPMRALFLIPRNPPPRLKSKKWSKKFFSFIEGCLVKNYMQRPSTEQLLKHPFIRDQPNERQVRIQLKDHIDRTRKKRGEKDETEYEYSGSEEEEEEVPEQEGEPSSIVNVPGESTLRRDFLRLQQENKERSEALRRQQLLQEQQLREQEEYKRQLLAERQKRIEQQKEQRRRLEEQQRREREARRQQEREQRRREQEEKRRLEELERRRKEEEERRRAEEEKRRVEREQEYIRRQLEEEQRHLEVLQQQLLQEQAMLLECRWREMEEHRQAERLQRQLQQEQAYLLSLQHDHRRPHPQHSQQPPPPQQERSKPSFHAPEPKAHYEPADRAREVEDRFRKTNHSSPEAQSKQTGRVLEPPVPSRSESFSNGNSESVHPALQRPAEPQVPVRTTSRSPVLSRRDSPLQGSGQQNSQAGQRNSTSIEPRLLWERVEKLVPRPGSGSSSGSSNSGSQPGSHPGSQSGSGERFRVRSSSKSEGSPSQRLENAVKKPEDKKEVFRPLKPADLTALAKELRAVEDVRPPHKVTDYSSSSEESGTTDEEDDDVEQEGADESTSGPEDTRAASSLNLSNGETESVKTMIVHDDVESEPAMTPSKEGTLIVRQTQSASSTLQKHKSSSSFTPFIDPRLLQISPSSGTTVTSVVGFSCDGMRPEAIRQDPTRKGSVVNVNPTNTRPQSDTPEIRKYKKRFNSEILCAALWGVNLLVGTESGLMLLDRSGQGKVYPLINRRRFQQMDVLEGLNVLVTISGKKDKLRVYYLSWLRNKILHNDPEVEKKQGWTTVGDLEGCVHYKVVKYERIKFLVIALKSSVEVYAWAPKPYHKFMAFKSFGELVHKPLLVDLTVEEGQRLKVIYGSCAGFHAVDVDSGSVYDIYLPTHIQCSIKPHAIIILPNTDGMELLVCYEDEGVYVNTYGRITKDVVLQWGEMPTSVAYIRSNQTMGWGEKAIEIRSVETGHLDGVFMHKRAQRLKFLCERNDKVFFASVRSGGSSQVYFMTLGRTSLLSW
Chain of Adenosine A3 (P0DMS8 whole entry): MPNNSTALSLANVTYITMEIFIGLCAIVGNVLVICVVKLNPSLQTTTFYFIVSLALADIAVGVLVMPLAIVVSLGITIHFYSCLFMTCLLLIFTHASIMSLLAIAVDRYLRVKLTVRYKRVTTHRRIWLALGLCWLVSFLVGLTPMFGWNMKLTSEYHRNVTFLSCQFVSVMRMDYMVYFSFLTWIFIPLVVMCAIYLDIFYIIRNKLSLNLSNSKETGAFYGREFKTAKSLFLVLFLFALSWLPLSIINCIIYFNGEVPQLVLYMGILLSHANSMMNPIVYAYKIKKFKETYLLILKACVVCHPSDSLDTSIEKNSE
Chain of TSSK3 (Q96PN8 whole entry): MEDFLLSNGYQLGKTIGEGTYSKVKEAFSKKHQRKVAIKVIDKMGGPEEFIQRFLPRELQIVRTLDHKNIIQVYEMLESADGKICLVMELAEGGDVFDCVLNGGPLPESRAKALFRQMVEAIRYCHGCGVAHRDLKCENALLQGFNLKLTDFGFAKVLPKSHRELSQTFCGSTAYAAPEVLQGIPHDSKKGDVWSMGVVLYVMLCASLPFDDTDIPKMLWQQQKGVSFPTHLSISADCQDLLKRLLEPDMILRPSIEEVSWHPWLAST
Chain of FAK (Q05397 whole entry): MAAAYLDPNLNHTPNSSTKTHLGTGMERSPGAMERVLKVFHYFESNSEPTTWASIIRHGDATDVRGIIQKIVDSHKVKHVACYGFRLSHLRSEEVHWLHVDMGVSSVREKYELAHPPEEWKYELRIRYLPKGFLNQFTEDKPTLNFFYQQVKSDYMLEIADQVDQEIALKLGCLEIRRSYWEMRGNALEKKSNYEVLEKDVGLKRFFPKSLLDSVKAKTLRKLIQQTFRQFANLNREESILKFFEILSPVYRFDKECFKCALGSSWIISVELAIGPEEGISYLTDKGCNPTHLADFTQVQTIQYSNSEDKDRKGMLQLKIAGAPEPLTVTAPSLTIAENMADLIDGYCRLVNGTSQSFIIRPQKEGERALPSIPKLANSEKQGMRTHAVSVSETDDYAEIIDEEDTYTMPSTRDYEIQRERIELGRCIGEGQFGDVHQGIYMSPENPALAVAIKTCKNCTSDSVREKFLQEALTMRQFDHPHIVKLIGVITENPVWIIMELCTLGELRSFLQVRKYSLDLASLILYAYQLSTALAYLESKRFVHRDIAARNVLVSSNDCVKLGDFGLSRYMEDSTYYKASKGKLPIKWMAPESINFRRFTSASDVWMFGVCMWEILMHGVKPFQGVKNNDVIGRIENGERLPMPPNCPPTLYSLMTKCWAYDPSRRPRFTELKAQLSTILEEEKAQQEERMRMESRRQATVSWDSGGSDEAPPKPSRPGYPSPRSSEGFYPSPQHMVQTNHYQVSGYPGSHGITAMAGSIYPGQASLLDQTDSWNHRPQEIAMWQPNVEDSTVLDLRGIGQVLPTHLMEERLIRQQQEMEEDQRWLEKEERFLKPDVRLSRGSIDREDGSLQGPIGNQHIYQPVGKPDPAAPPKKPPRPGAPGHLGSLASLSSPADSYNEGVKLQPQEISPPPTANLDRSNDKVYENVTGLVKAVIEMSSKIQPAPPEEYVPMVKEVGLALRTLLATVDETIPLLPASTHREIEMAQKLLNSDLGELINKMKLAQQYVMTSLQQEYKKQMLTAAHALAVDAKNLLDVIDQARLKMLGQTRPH
Chain of LATS1 (O95835 whole entry): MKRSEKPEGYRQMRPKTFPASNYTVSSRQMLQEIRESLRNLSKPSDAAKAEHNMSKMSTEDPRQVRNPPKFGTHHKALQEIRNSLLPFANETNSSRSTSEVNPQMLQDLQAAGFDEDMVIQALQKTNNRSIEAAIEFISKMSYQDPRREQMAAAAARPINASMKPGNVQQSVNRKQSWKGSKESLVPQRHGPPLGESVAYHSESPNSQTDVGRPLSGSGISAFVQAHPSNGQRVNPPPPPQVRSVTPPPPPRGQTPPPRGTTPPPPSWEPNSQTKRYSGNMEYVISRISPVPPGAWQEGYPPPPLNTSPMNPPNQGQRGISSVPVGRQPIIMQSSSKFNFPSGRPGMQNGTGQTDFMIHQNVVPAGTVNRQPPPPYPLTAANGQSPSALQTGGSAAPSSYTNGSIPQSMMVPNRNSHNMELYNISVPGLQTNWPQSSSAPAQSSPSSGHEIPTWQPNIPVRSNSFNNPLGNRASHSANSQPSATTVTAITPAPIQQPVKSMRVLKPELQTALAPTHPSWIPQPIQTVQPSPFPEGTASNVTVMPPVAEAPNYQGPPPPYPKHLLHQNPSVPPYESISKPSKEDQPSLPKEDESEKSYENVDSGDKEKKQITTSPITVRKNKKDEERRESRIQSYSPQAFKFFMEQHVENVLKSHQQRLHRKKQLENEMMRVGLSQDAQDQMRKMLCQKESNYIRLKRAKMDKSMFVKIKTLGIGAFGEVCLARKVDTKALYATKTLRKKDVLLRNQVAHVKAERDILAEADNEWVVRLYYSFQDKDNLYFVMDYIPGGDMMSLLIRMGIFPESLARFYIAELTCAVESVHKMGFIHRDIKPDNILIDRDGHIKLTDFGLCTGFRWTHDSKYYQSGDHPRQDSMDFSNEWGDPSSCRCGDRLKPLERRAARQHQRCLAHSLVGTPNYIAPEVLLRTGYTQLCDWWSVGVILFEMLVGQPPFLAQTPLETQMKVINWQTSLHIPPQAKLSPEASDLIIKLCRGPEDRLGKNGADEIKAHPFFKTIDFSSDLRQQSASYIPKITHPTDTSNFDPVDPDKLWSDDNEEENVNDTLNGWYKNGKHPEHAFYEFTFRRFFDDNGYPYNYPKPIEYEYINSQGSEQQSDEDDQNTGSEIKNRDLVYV
Chain of MELK (Q14680 whole entry): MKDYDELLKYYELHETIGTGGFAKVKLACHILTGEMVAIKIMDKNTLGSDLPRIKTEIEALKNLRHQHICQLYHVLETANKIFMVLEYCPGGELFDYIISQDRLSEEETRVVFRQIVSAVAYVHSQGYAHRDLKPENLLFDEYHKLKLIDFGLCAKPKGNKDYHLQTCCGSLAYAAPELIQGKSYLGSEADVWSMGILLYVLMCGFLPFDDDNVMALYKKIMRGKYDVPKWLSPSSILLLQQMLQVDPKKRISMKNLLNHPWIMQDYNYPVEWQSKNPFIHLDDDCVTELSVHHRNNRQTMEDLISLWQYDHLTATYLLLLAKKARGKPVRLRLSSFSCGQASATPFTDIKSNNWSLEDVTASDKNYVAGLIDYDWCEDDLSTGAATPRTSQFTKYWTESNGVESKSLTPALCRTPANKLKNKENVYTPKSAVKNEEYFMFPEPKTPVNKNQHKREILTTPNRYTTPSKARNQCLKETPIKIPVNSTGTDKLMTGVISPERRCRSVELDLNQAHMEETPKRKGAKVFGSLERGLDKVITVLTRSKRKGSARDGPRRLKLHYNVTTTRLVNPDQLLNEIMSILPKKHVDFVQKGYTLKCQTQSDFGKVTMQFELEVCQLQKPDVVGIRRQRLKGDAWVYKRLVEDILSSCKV
Chain of JAK3(JH1domain-catalytic) (P52333 822-1124 limits assumed): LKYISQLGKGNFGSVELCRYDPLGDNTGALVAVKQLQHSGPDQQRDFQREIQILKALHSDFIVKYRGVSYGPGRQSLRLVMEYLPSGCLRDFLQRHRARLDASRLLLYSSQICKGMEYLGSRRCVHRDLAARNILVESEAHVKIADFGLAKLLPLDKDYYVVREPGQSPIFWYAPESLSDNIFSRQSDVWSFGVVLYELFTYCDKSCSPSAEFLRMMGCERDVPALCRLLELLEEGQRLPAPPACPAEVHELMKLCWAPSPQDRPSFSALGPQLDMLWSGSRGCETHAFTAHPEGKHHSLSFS

SMILES: COc1cc(F)ccc1-c1cc(Nc2cc(CS(C)(=N)=O)ccn2)ncc1F (centres unmarked) [VIP152]
- remaining binding at 1 µM (INSRR): 85%
- remaining binding at 1 µM (MARK4): 88%
- remaining binding at 1 µM (ERK5): 95%
- remaining binding at 1 µM (CDKL2): 18%
- IC50 (Adrenergic α2A): 64 nM
- Ki (Adrenergic α2A): 32 nM
- nH (Adrenergic α2A): 0.94
- inhibition at 10 µM (Adrenergic α2A; Conc. 10 μM): 100%
- remaining binding at 1 µM (MRCKB): 59%
- sensitivity to induction of apoptosis (OSU-CLL): highest sensitivity to induction of apoptosis
- remaining binding at 0.1 µM [1]: 100%
- remaining binding at 1 µM (LATS1): 62%
- remaining binding at 1 µM (AXL): 50%
- remaining binding at 1 µM (FAK): 83%
- remaining binding at 0.1 µM (ULK2): 100%
- remaining binding at 0.1 µM (SRPK3): 100%
- remaining binding at 1 µM (MST1R): 70%
- remaining binding at 0.1 µM (TBK1): 62%
- remaining binding at 1 µM (MELK): 96%
- remaining binding at 1 µM (EPHA6): 90%
- remaining binding at 1 µM (MAP4K4): 44%
- remaining binding at 1 µM [2]: 74%
- remaining binding at 0.1 µM (TSSK3): 96%
- remaining binding at 1 µM (MAP4K2): 26%
- remaining binding at 1 µM (CAMK2G): 78%
- remaining binding at 1 µM (CTK): 84%
- remaining binding at 1 µM (IKK-beta): 100%
- remaining binding at 0.1 µM [3]: 100%
- remaining binding at 0.1 µM (TSSK1B): 78%
- inhibition at 10 µM (Dopamine D4.2): 32%
- remaining binding at 0.1 µM (SNARK): 100%
- remaining binding at 1 µM (EPHB2): 92%
- remaining binding at 1 µM (MEK4): 89%
- remaining binding at 0.1 µM (TAOK2): 92%
- remaining binding at 1 µM (DLK): 90%
- remaining binding at 1 µM [4]: 66%
- inhibition at 10 µM (Adenosine A3): 43%
- remaining binding at 0.1 µM (TLK2): 100%
